Data: patent publication US10953012B2, “Heterocyclic compounds for the inhibition of pask” (BioEnergenix LLC, priority 2011, dated 2021)

Experiments:
PASK [1] = target: PASK (UniProt #Q96RG2; residues 879-1323) (Homo sapiens (Human), UniProt Q96RG2); experiment: PASK ATP Radiochemical Assay; format: biochemical; conditions: 33P-ATP radiochemical assay; read-out: IC50 Kinase Domain
Method: PASK ATP Radiochemical Assay Purified PASK (UniProt #Q96RG2; human recombinant N-terminal GST tagged construct, residues 879-1323) from insect cells (final concentration 5 nM) is added to freshly prepared Base Reaction Buffer containing 20 mM HEPES (pH 7.5), 10 mM MgCl2, 1 mM EGTA, 0.02% Brij35, 0.02 mg/ml BSA, 0.1 mM Na3VO4, 2 mM DTT, 1% DMSO and Myelin Basic Protein (20 μM final). Test compounds in DMSO are then added and the mixture, followed by delivery of ^33P-ATP (specific activity 0.01 μCi/μl final) to initiate the reaction. The kinase reaction is incubated for 120 min at room temperature. The entire reaction mixture is washed through onto a P81 Phosphocellulose paper and washed three times for 10 minutes in 75 mM phosphoric acid and once in methanol prior to drying and scintillation counting.

PASK [2] = target: PASK (Homo sapiens (Human), UniProt Q96RG2); experiment: PAS Kinase FRET Assay; format: biochemical; conditions: TR-FRET assay; read-out: IC50 Kinase Domain
PASK (Homo sapiens (Human), UniProt Q96RG2), sequence (Q96RG2 999-1251): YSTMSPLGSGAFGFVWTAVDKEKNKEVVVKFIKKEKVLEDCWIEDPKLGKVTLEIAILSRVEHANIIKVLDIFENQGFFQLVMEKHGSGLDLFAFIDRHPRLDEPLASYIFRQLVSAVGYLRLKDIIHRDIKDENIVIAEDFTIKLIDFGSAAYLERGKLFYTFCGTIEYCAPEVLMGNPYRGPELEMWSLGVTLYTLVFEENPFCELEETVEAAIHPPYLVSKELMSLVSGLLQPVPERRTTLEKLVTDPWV
How it was run: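 Reaction buffer: 50 mM HEPES, 10 mM MgCl2, 1 mM EGTA, 2 mM DTT, 0.01% Tween-20. Test compounds (eleven-point series prepared at 4× final) preceded PASK and substrate/ATP. Reaction ran 2 h at 25 °C in the dark, then stopped. Phospho-ULight peptide detected by Eu-antibody TR-FRET, 665/615 nm ratio.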

CK2a2 = CK2a2 (Homo sapiens (Human), UniProt P19784); experiment: Biochemical Assay for CK2 Activity; conditions: 33P-ATP radiochemical assay; read-out: IC50 CK2 a2
CK2a2, sequence (P19784 whole entry): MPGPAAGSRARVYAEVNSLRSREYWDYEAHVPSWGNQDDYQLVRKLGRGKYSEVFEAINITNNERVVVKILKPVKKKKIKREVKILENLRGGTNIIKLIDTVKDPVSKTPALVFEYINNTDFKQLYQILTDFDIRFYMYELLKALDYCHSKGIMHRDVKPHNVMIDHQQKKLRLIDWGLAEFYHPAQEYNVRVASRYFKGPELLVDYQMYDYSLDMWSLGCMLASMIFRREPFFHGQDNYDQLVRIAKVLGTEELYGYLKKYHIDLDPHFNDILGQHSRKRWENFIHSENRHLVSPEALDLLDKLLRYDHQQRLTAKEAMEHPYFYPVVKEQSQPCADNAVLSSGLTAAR
Method: Biochemical Assay for CK2 Activity
Purified CK2a2 (NP_001887; human full-length protein, GST tagged) from insect cells (final concentration 1.2 nM) is added to freshly prepared Base Reaction Buffer containing 20 mM Hepes (pH 7.5), 10 mM MgCl2, 1 mM EGTA, 0.02% Brij35, 0.02 mg/ml BSA, 0.1 mM Na3VO4, 2 mM DTT, 1% DMSO and CK2 sub [RRRDDDSDDD] (20 μM final). Test compounds in DMSO are then added and the mixture, followed by delivery of ^33P-ATP (specific activity 0.01 μCi/μl final) to initiate the reaction. The kinase reaction is incubated for 120 min at room temperature. The entire reaction mixture is washed through onto a P81 Phosphocellulose paper and washed three times for 10 minutes in 75 mM phosphoric acid and once in methanol prior to drying and scintillation counting.

PASK (UniProt #Q96RG2; residues 879-1323) (Homo sapiens (Human), UniProt Q96RG2), sequence (Q96RG2 879-1323): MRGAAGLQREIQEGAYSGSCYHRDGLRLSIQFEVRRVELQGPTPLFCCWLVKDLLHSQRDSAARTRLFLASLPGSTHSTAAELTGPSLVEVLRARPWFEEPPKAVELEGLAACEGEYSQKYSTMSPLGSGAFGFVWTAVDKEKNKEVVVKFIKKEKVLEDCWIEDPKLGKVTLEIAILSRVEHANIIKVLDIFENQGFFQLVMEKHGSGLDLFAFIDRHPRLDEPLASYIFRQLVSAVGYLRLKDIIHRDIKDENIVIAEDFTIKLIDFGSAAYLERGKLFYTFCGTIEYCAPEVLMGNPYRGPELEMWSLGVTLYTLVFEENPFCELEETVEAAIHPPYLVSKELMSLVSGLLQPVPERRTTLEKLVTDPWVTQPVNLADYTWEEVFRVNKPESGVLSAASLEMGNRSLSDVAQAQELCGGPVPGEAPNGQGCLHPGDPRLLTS

Structure (SMILES) | IC50 (PASK [1]) | IC50 (PASK [2]) | IC50 (CK2a2)
O=c1cc(-c2ccc(Cl)cc2)[nH]c2c(-c3ccccn3)cnn12 [Example 109, 5-(4-Chlorophenyl)-3-(pyridin-2-yl)pyrazolo[1,5-a]pyrimidin-7(4H)-one] | ≤ 10 µM | ≤ 10 µM | ≤ 10 µM
COc1ccc(-c2cc(=O)n3ncc(-c4ccccn4)c3[nH]2)c(OC)c1 [Example 110, 5-(2,4-Dimethoxyphenyl)-3-(pyridin-2-yl)pyrazolo[1,5-a]pyrimidin-7(4H)-one] | ≤ 10 µM | ≤ 10 µM | ≤ 10 µM
COc1ccc(-c2cc(=O)n3ncc(-c4ccccn4)c3[nH]2)cc1OC [Example 111, 5-(3,4-Dimethoxyphenyl)-3-(pyridin-2-yl)pyrazolo[1,5-a]pyrimidin-7(4H)-one] | ≤ 10 µM | ≤ 10 µM | ≤ 10 µM
N#Cc1cnn2c(=O)cc(-c3ccc4c(c3)OCCO4)[nH]c12 [Example 113, 5-(2,3-Dihydrobenzo[b][1,4]dioxin-6-yl)-7-oxo-4,7-dihydropyrazolo[1,5-a]pyrimidine-3-carbonitrile] | ≤ 10 µM | ≤ 10 µM | ≤ 10 µM
NC(=O)c1cnn2c(=O)cc(-c3ccc4c(c3)OCCO4)[nH]c12 [Example 114, 5-(2,3-Dihydrobenzo[b][1,4]dioxin-6-yl)-7-oxo-4,7-dihydropyrazolo[1,5-a]pyrimidine-3-carboxamide] | ≤ 10 µM | ≤ 10 µM | ≤ 10 µM
O=c1c2c([nH]c3c(-c4ccccn4)cnn13)-c1ccccc1CC2 [Example 116, 11-(Pyridin-2-yl)-5,6-dihydrobenzo[h]pyrazolo[5,1-b]quinazolin-7(12H)-one] | ≤ 10 µM | ≤ 10 µM | ≤ 10 µM
O=c1cc(-c2ccc3c(c2)OCCO3)[nH]c2c(-c3ccccc3)c(C(F)(F)F)nn12 [Example 117, 5-(2,3-Dihydrobenzo[b][1,4]dioxin-6-yl)-3-phenyl-2-(trifluoromethyl)pyrazolo[1,5-a]pyrimidin-7(4H)-one] | ≤ 10 µM | ≤ 10 µM | ≤ 10 µM
O=c1cc(-c2ccc3c(c2)OCCO3)[nH]c2c(-c3ccc(N4CCCC4)nc3)cnn12 [Example 119, 5-(2,3-Dihydrobenzo[b][1,4]dioxin-6-yl)-3-(6-(pyrrolidin-1-yl)pyridin-3-yl)pyrazolo[1,5-a]pyrimidin-7(4H)-one] | ≤ 10 µM | ≤ 10 µM | ≤ 10 µM
COc1ccc2c(c1)CCc1c-2[nH]c2c(-c3ccccn3)cnn2c1=O [Example 121, 3-Methoxy-11-(pyridin-2-yl)-5,6-dihydrobenzo[h]pyrazolo[5,1-b]quinazolin-7(12H)-one] | ≤ 10 µM | ≤ 10 µM | ≤ 10 µM
COc1ccc(-c2cc(=O)n3nc(O)c(-c4ccccn4)c3[nH]2)c(OC)c1 [Example 122, 5-(2,4-Dimethoxyphenyl)-2-hydroxy-3(pyridin-2-yl)pyrazolo[1,5-a]pyrimidin-7(4H)-one] | ≤ 10 µM | ≤ 10 µM | ≥ 10 µM
O=c1cc(-c2ccc(Cl)cc2)[nH]c2c(-c3ccccn3)c(O)nn12 [Example 123, 5-(4-Chlorophenyl)-2-hydroxy-3-(pyridin-2-yl)pyrazolo[1,5-a]pyrimidin-7(4H)-one] | ≤ 10 µM | ≤ 10 µM | ≥ 10 µM
O=c1cc(-c2ccc(F)cc2)[nH]c2c(-c3ccccn3)cnn12 [Example 125, 5-(4-Fluorophenyl)-3-(pyridin-2-yl)pyrazolo[1,5-a]pyrimidin-7(4H)-one] | ≤ 10 µM | ≤ 10 µM | ≤ 10 µM
O=c1cc(-c2ccc(Cl)c(Cl)c2)[nH]c2c(-c3ccccn3)cnn12 [Example 126, 5-(3,4-Dichlorophenyl)-3-(pyridin-2-yl)pyrazolo[1,5-a]pyrimidin-7(4H)-one] | ≤ 10 µM | ≤ 10 µM | ≤ 10 µM
O=c1cc(-c2ccc3occc3c2)[nH]c2c(-c3ccccc3)c(O)nn12 [Example 127, 5-(Benzofuran-5-yl)-2-hydroxy-3-phenylpyrazolo[1,5-a]pyrimidin-7(4H)-one] | ≤ 10 µM | ≤ 10 µM | ≤ 10 µM
O=c1cc(-c2ccc(Cl)cc2)[nH]c2c(-c3cccnc3)c(O)nn12 [Example 128, 5-(4-Chlorophenyl)-2-hydroxy-3-(pyridin-3-yl)pyrazolo[1,5-a]pyrimidin-7(4H)-one] | ≤ 10 µM | ≤ 10 µM | ≥ 10 µM
O=c1cc(-c2ccc3c(c2)CCO3)[nH]c2c(-c3ccccn3)c(O)nn12 [Example 129, 5-(2,3-Dihydrobenzofuran-5-yl)-2-hydroxy-3-(pyridin-2-yl)pyrazolo[1,5-a]pyrimidin-7(4H)-one] | ≤ 10 µM | ≤ 10 µM | ≥ 10 µM

Next, values leading:

IC50 (PASK [1]) | IC50 (PASK [2]) | IC50 (CK2a2) | Structure (SMILES)
≤ 10 µM | ≤ 10 µM | ≤ 10 µM | Cc1nn2c(=O)cc(-c3ccc4c(c3)OCCO4)[nH]c2c1-c1ccc(F)cc1 [Example 81, 5-(2,3-Dihydrobenzo[b][1,4]dioxin-6-yl)-3-(4-fluorophenyl)-2-methylpyrazolo[1,5-a]pyrimidin-7(4H)-one]
≤ 10 µM | ≤ 10 µM | ≤ 10 µM | COc1cccc(-c2cnn3c(=O)cc(-c4ccc5c(c4)OCCO5)[nH]c23)c1 [Example 92, 5-(2,3-Dihydrobenzo[b][1,4]dioxin-6-yl)-3-(3-methoxyphenyl)pyrazolo[1,5-a]pyrimidin-7(4H)-one]
≤ 10 µM | ≤ 10 µM | ≤ 10 µM | O=c1cc(-c2ccc3c(c2)CCO3)[nH]c2c(-c3ccccn3)cnn12 [Example 96, 5-(2,3-Dihydrobenzofuran-5-yl)-3-(pyridin-2-yl)pyrazolo[1,5-a]pyrimidin-7(4H)-one]
≤ 10 µM | ≤ 10 µM | ≤ 10 µM | O=c1cc(-c2ccc3occc3c2)[nH]c2c(-c3ccccc3)cnn12 [Example 97, 5-(Benzofuran-5-yl)-3-phenylpyrazolo[1,5-a]pyrimidin-7(4H)-one]
≤ 10 µM | ≤ 10 µM | ≤ 10 µM | O=c1cc(-c2ccc3c(c2)CCO3)[nH]c2c(-c3ccccc3)cnn12 [Example 98, 5-(2,3-Dihydrobenzofuran-5-yl)-3-phenylpyrazolo[1,5-a]pyrimidin-7(4H)-one]
≤ 10 µM | ≤ 10 µM | ≤ 10 µM | O=c1cc(-c2ccc3c(c2)CCO3)[nH]c2c(-c3cccnc3)cnn12 [Example 99, 5-(2,3-Dihydrobenzofuran-5-yl)-3-(pyridin-3-yl)pyrazolo[1,5-a]pyrimidin-7(4H)-one]
≤ 10 µM | ≤ 10 µM | ≤ 10 µM | O=c1cc(-c2ccc3c(c2)OCO3)[nH]c2c(-c3cccnc3)c(O)nn12 [Example 100, 5-(Benzo[d][1,3]dioxol-5-yl)-2-hydroxy-3-(pyridin-3-yl)pyrazolo[1,5-a]pyrimidin-7(4H)-one]
≤ 10 µM | ≤ 10 µM | ≤ 10 µM | O=c1cc(-c2ccc3c(c2)OCCO3)[nH]c2c(-c3ccccn3)c(O)nn12 [Example 102, 5-(2,3-Dihydrobenzo[b][1,4]dioxin-6-yl)-2-hydroxy-3-(pyridin-2-yl)pyrazolo[1,5-a]pyrimidin-7(4H)-one]
≤ 10 µM | ≤ 10 µM | ≤ 10 µM | O=c1cc(-c2ccc3c(c2)OCCO3)[nH]c2c(-c3ccccc3)c(O)nn12 [Example 103, 5-(2,3-Dihydrobenzo[b][1,4]dioxin-6-yl)-2-hydroxy-3-phenylpyrazolo[1,5-a]pyrimidin-7(4H)-one]
≤ 10 µM | ≤ 10 µM | ≤ 10 µM | O=C(c1cnn2c(=O)cc(-c3ccc4c(c3)OCCO4)[nH]c12)N1CCOCC1 [Example 106, 5-(2,3-Dihydrobenzo[b][1,4]dioxin-6-yl)-3-(morpholine-4-carbonyl)pyrazolo[1,5-a]pyrimidin-7(4H)-one]
≤ 10 µM | ≤ 10 µM | ≤ 10 µM | CN1CCN(C(=O)c2cnn3c(=O)cc(-c4ccc5c(c4)OCCO5)[nH]c23)CC1 [Example 107, 5-(2,3-Dihydrobenzo[b][1,4]dioxin-6-yl)-3-(4-methylpiperazine-1-carbonyl)pyrazolo[1,5-a]pyrimidin-7(4H)-one]
≤ 10 µM | ≤ 10 µM | ≤ 10 µM | O=C(NCc1ccccc1)c1cnn2c(=O)cc(-c3ccc4c(c3)OCCO4)[nH]c12 [Example 108, N-Benzyl-5-(2,3-dihydrobenzo[b][1,4]dioxin-6-yl)-7-oxo-4,7-dihydropyrazolo[1,5-a]pyrimidine-3-carboxamide]
